From US20220372014A1, “NEUROPROTECTIVE COMPOUNDS AND METHODS OF USE THEREOF” (The Johns Hopkins University, priority 2019, published 2022)

Legend:
[1] = system: HeLa cells or neuronal cells; assay: Cell death assay of Example 3 (MNNG, alamarBlue; protection against parthanatos, Table 4); format: cell-based; conditions: 1 μM test compound, MNNG-induced cell death, alamarBlue
Description: Cell death assay: 200 μl of cells (HeLa cells or neuronal cells) culture (1×10^4 cells/well) were plated into the wells of a sterile 96-well cell culture plate. The cells were incubated for 18 hours at 37° C. The medium was removed and changed with 100 μl/well of 1 μM test compound. Incubate for 1 hours at 37° C. Ten μl of 500 μM MNNG (N-Methyl-N′-nitro-N-nitrosoguanidine) was added to each well. The medium was aspirated well and incubated for 15 min at 37° C. The cells were washed with the fresh medium. The medium was changed with 1 μM of test compound and incubated for 18 hours at 37° C. 10 μl/well of alamarBlue reagent was added directly to the well and incubated for 1 to 4 hours at 37° C. Fluorescence was measured using a fluorescence excitation wavelength of 560 nm and emission at 590 nm. The percentage of cell death was determined as the ratio of live to dead cells compared with the percentage of cell death in control wells to account for cell death attributed to mechanical stimulation of the cultures.

[2] = molecular target: T1, MIF (Homo sapiens, UniProt P14174); assay: Nuclease assay of Example 3 (MIF inhibitory activity, Table 4); format: biochemical; set-up: (%) inhibition of MIF nuclease activity: concentration or dose not given beside the values; conditions: nuclease assay of Example 3
T1 sequence (P14174 1-115): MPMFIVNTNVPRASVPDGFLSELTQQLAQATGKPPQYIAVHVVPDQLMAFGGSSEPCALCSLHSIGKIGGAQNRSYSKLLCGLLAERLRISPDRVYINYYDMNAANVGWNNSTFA
Description: A rapafucin library was synthesized as described in WO2017/136708 and Guo et al. (2018) Nat. Chem. 11:254-63. The hybrid macrocyclic library consisted of 45,000 compounds in pools of 15 individual compounds. The library compounds were screened for MIF inhibitory activity using a nuclease assay as detailed in FIG. 1 and below.
Nuclease assay: Human genomic DNA (200 ng/reaction, Promega), pcDNA (200 ng/reaction) or PS^30 and its related and non-related substrates (1 μM) was incubated with wild type MIF or its variants at a final concentration of 0.25-8 μM as indicated in 10 mM Tris-HCl buffer (pH 7.0) containing 10 mM MgCl2 and 1 mM DTT or specific buffer as indicated, for 1 h (with pcDNA and small DNA substrates) or 4 h (with human genomic DNA) at 37° C. The reaction was terminated with loading buffer containing 10 mM EDTA and incubation on ice. The human genomic DNA samples were immediately separated on a 1.2% pulse field certified agarose in 0.5×TBE buffer with initial switch time of 1.5 s and a final switch time of 3.5 s for 12 h at 6 V/cm. pcDNA samples were determined by 1% agarose gel. Small DNA substrates were separated on 15% or 25% TBE-urea polyacrylamide (PAGE) gel or 20% TBE PAGE gel. Then gel was stained with 0.5 μg/ml Ethidium Bromide (EtBr) followed by electrophoretic transfer to nylon membrane. Then, Biotin-labeled DNA is further detected by chemiluminescence using Chemiluminescent Nucleic Acid Detection Module (Thermo Scientific).
Structure-activity relationship (SAR) analysis was then conducted on the compounds identified as having MIF inhibitory activity. Compounds having the structure of Formula (I) were then synthesized as shown in Example 1 and tested for MIF inhibitory activity using the nuclease assay described herein and neuronal protection via a cell death assay as detailed below.

SMILES	(%) inhibition of cell death [1] [%]	(%) inhibition of MIF nuclease activity [2] [%]
COc1ccc(CC[C@H]2OC(=O)[C@@H]3CCCCN3C(=O)C(=O)C(C)(C)COC(=O)C=CCCN(C)C(=O)[C@@H]3CCCN3C(=O)[C@H](COC(C)(C)C)N(C)C(=O)[C@@H](c3ccccc3)NC(=O)[C@H](C)N(C)C(=O)COc3cc(F)cc2c3)cc1OC (racemic) [compound 153]	93.2	71.7
COc1ccc(CC[C@H]2OC(=O)[C@@H]3CCCCN3C(=O)C(=O)C(C)(C)COC(=O)C=CCCN(C)C(=O)[C@@H]3CCCN3C(=O)[C@H](COC(C)(C)C)N(C)C(=O)[C@H](c3ccccc3)NC(=O)[C@H](C)N(C)C(=O)COc3cc(F)cc2c3)cc1OC (racemic) [compound 154]	46.2	38.2
COc1ccc(CC[C@H]2OC(=O)[C@@H]3CCCCN3C(=O)C(=O)C(C)(C)COC(=O)C=CCCN(C)C(=O)CNC(=O)[C@H](COC(C)(C)C)N(C)C(=O)[C@@H](CC(C)C)NC(=O)CN(C)C(=O)COc3cccc2c3)cc1OC [compound 1]	43.6	25.3
COc1ccc(CC[C@H]2OC(=O)[C@@H]3CCCCN3C(=O)C(=O)C(C)(C)COC(=O)C=CCCN(C)C(=O)[C@H](C)NC(=O)[C@H](COC(C)(C)C)N(C)C(=O)[C@@H](CC(C)C)NC(=O)CN(C)C(=O)COc3cccc2c3)cc1OC [compound 2]	41.1	15.3
COc1ccc(CC[C@H]2OC(=O)[C@@H]3CCCCN3C(=O)C(=O)C(C)(C)COC(=O)C=CCCN(C)C(=O)[C@@H](C)NC(=O)[C@H](COC(C)(C)C)N(C)C(=O)[C@@H](CC(C)C)NC(=O)CN(C)C(=O)COc3cccc2c3)cc1OC [compound 3]	40.6	21.0
CCC[C@@H]1NC(=O)[C@H](COC(C)(C)C)N(C)C(=O)[C@@H](CC(C)C)NC(=O)CN(C)C(=O)COc2cccc(c2)[C@@H](CCc2ccc(OC)c(OC)c2)OC(=O)[C@@H]2CCCCN2C(=O)C(=O)C(C)(C)COC(=O)C=CCCN(C)C1=O [compound 4]	39.7	10.8
COCC[C@@H]1NC(=O)[C@H](COC(C)(C)C)N(C)C(=O)[C@@H](CC(C)C)NC(=O)CN(C)C(=O)COc2cccc(c2)[C@@H](CCc2ccc(OC)c(OC)c2)OC(=O)[C@@H]2CCCCN2C(=O)C(=O)C(C)(C)COC(=O)C=CCCN(C)C1=O [compound 5]	41.7	10.7
COc1ccc(CC[C@H]2OC(=O)[C@@H]3CCCCN3C(=O)C(=O)C(C)(C)COC(=O)C=CCCN(C)C(=O)[C@H](CC(C)C)NC(=O)[C@H](COC(C)(C)C)N(C)C(=O)[C@@H](CC(C)C)NC(=O)CN(C)C(=O)COc3cccc2c3)cc1OC [compound 6]	46.5	30.8
COc1ccc(CC[C@H]2OC(=O)[C@@H]3CCCCN3C(=O)C(=O)C(C)(C)COC(=O)C=CCCN(C)C(=O)[C@@H](CC(C)C)NC(=O)[C@H](COC(C)(C)C)N(C)C(=O)[C@@H](CC(C)C)NC(=O)CN(C)C(=O)COc3cccc2c3)cc1OC [compound 7]	54.5	30.1
COc1ccc(CC[C@H]2OC(=O)[C@@H]3CCCCN3C(=O)C(=O)C(C)(C)COC(=O)C=CCCN(C)C(=O)[C@@H]3CCCN3C(=O)[C@H](COC(=O)CCC(=O)OCCOCCOCCOCCNC(=O)CCCCC3SC[C@H]4NC(=O)N[C@@H]34)N(C)C(=O)C(c3ccccc3)NC(=O)[C@H](C)N(C)C(=O)COc3cccc2c3)cc1OC (stereo partly shown) [compound 130]	48.2	
